From ChEMBL document CHEMBL6114998, “Design, Synthesis, and Pharmacological Evaluation of Quinazoline and Quinoline Derivatives as Potent ENPP1 Inhibitors for Cancer Immunotherapy” (J Med Chem, 2025) come the findings set out here.

A word on the Papp A→B: it is how fast a substance crosses the layer from the apical side. What is called IC50 is the concentration that gives 50% inhibition. Usually clearance stands for a measure of how efficiently the substance is removed, as volume per time. Read a high clearance as efficient removal. The term Cmax denotes the maximum level reached in the sampled fluid or tissue. As usually defined, the efflux ratio is the permeability from basolateral to apical divided by that in the opposite direction, in the common usage. What is called AUC(0-t) is the area under the concentration-time curve up to a stated or last time point. High values mean more exposure, low ones less exposure.

Data set [1] is described as follows: Apparent permeability across apical to basal side in human Caco-2 cells at 10 uM by LC-MS/MS analysis. The class given is ADME, cell-based. In general terms: Caco-2 cells form a polarised layer with tight junctions and transporters.
For data set [2], the target named is T1, Ectonucleotide pyrophosphatase/phosphodiesterase family member 1 (Homo sapiens, UniProt P22413).
T1 sequence (P22413 whole entry): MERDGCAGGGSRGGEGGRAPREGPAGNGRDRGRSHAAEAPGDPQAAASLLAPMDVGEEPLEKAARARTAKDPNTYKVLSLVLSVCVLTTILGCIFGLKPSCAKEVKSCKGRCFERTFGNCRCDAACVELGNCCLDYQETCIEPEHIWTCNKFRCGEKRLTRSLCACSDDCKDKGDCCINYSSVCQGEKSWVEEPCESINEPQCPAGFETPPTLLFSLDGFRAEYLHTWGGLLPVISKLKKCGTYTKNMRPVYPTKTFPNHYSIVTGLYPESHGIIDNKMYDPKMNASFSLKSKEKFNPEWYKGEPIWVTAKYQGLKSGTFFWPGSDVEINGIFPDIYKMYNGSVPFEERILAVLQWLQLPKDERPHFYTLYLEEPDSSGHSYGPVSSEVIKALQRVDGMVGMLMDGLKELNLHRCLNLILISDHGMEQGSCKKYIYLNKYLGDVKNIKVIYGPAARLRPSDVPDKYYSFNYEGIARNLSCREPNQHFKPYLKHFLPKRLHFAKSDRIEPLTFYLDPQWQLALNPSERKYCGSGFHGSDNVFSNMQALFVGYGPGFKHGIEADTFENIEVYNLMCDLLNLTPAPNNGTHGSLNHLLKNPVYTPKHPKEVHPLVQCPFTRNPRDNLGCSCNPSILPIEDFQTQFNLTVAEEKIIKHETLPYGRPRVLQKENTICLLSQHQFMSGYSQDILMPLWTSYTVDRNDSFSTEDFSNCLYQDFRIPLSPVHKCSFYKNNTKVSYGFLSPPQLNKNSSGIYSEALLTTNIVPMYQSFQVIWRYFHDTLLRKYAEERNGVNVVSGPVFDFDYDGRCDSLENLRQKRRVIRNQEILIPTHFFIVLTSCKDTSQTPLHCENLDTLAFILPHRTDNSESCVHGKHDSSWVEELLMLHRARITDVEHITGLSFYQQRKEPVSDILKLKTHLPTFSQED
Briefly: Inhibition of recombinant human ENPP1 transfected in HEK293T cells using cGAMP as substrate at pH 7.5 measured after 3.5 hrs by luminescence based AMP-glo assay. The format is cell-based.

The species named for a further data set is Homo sapiens. Briefly: Inhibition of TLK (unknown origin) at 1 uM by KINOMEscan assay.
In data set [3] the test system is THP1-Dual KO-STING. Description: Activation of STING-mediated immune response in human THP1-Dual KO-STING cells assessed as cGAMP-induced ISRE activation at 1 uM preincubated with conditioned medium containing 36 hrs compound treated with human MDA-MB-231 cells and measured after 24 hrs by quanti-luc luciferase assay. The note with it: filed as activator, time 60.0 hrs. The class given is cell-based.

A short description of data set [4]: Clearance in Sprague-Dawley rat at 10 mg/kg, iv measured upto 24 hrs by LC-MS/MS analysis. The class given is ADME, organism-based. The note with it: in vivo.
A short description of data set [5]: Cmax in Sprague-Dawley rat at 10 mg/kg, iv measured upto 24 hrs by LC-MS/MS analysis. The note with it: in vivo. The format is ADME, organism-based.
For data set [6], the system named is CT26. Description: Antitumor activity against mouse CT26 cells allografted in female BALB/c mouse assessed as increase in infiltration of CD8+T cells in tumor tissue at 200 mg/kg QD, ip measured every 2 days for 12 days by immunohistochemical analysis. The note with it: time 12.0 day. The class given is functional, organism-based.
Data set [7] has as its system CT26. Description: Antitumor activity against mouse CT26 cells allografted in female BALB/c mouse assessed as increase in M1-type macrophages in tumor tissue at 200 mg/kg QD, ip in presence of anti-PD-L1 antibody measured every 2 days for 12 days by immunohistochemical analysis. The note with it: time 12.0 day. The format is functional, organism-based.
The subject of data set [8] is CT26. Description: Antitumor activity against mouse CT26 cells allografted in female BALB/c mouse assessed as decrease in M2-type macrophages in tumor tissue at 200 mg/kg QD, ip measured every 2 days for 12 days by immunohistochemical analysis. The format is functional, organism-based. The note with it: time 12.0 day.
Another data set has as its system THP-1. Description: Activation of STING signalling pathway in human THP-1 cells assessed as increase in IFNB1 expression measured after 18 hrs in presence of cGAMP by qPCR analysis. The class given is cell-based. The note with it: filed as activator, dose 3-1000 nM. (In general: Real-time PCR tracks product formation cycle by cycle.)
Data set [9] concerns CT26. Briefly: Antitumor activity against mouse CT26 cells allografted in female BALB/c mouse assessed as increase in CD8+T cells in tumor tissue at 200 mg/kg QD, ip in presence of anti-PD-L1 antibody measured every 2 days for 12 days by immunofluorescence analysis. The format is functional, organism-based. The following applies: time 12.0 day.
Data set [10] relates to CT26. Briefly: Antitumor activity against mouse CT26 cells allografted in female BALB/c mouse plasma assessed as increase in IP-10 secretion in tumor tissue at 200 mg/kg QD, ip in presence of anti-PD-L1 antibody measured every 2 days for 12 days by ELISA analysis. The class given is functional, organism-based. The note with it: time 12.0 day.
The test system of data set [11] is THP1-Dual KO-STING. Briefly: Cytotoxicity against human THP1-Dual KO-STING cells assessed as effect on cell viability at 1 uM followed by addition of conditioned medium containing 36 hrs compound pretreated human MDA-MB-231 cells measured after 24 hrs by celltiter-glo assay. The following applies: time 60.0 hrs. The class given is functional, cell-based. For orientation: In ATP-based viability assays light output follows the ATP content of the culture.

Data set [12] is described as follows: Toxicity in female BALB/c mouse allografted with mouse CT26 cells assessed as change in body weight at 200 mg/kg QD, ip measured every 2 days for 12 days. The format is organism-based. The following applies: in vivo, 288 h, time 12 day.
In data set [13] the test system is CT26. Briefly: Antitumor activity against mouse CT26 cells allografted in female BALB/c mouse assessed as decrease in M2-type macrophages in tumor tissue at 200 mg/kg QD, ip in presence of anti-PD-L1 antibody measured every 2 days for 12 days by immunofluorescence analysis. The format is functional, organism-based. The note with it: time 12.0 day.
Data set [14] concerns CT26. Briefly: Antitumor activity against mouse CT26 cells allografted in female BALB/c mouse assessed as increase in CD8+T cells in tumor tissue at 200 mg/kg QD, ip measured every 2 days for 12 days by immunofluorescence analysis. The class given is functional, organism-based. The following applies: time 12.0 day.
The target of data set [15] is Voltage-gated inwardly rectifying potassium channel KCNH2 (Homo sapiens, UniProt Q12809). Description: Inhibition of hERG expressed in CHO cells by QPatch automated patch-clamp assay. The class given is toxicity, cell-based.
Voltage-gated inwardly rectifying potassium channel KCNH2, sequence (Q12809 whole entry): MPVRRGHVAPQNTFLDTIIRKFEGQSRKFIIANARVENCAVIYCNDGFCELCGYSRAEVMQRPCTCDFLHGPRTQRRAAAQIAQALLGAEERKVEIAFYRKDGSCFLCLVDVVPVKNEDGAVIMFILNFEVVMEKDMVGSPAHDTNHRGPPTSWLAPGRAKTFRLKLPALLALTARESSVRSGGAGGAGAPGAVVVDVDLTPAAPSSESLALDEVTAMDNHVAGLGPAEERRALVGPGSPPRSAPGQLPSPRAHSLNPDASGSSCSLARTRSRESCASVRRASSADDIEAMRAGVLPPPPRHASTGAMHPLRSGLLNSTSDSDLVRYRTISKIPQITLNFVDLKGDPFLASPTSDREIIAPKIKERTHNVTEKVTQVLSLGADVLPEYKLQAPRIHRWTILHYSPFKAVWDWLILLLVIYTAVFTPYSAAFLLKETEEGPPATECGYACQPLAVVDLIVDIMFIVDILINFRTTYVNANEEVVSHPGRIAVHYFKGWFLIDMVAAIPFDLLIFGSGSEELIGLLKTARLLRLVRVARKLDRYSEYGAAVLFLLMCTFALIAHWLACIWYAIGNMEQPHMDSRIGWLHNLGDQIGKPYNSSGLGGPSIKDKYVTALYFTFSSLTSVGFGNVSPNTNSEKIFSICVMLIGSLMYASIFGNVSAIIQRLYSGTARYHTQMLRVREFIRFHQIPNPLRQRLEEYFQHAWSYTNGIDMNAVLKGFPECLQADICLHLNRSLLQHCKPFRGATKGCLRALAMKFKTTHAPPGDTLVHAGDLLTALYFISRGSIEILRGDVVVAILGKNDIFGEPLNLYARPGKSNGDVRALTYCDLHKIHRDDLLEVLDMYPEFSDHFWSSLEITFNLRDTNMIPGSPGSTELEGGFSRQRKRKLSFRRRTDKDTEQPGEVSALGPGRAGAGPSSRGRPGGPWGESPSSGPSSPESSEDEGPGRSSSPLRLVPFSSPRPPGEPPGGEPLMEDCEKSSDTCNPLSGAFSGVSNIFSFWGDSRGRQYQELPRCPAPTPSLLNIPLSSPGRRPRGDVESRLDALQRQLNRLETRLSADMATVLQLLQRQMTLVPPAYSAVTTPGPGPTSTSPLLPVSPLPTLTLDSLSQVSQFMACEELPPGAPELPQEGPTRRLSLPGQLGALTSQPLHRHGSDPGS
Data set [16] in a line: Efflux ratio of apparent permeability from basolateral to apical side over apical to basolateral side in human Caco-2 cells at 10 uM by LC-MS/MS analysis. The class given is ADME, cell-based.
Data set [17] relates to CT26. Briefly: Antitumor activity against mouse CT26 cells allografted in female BALB/c mouse assessed as decrease in M2-type macrophages in tumor tissue at 200 mg/kg QD, ip measured every 2 days for 12 days by immunofluorescence analysis. The format is functional, organism-based. The following applies: time 12.0 day.
Data set [18] deals with CT26. Description: Antitumor activity against mouse CT26 cells allografted in female BALB/c mouse assessed as increase in M1-type macrophages in tumor tissue at 200 mg/kg QD, ip in presence of anti-PD-L1 antibody measured every 2 days for 12 days by immunofluorescence analysis. The note with it: time 12.0 day. The format is functional, organism-based.
The test system of a further data set is THP1-Dual. Description: Cytotoxicity against human THP1-Dual cells assessed as effect on cell viability at 3 to 1000 nM followed by addition of conditioned medium containing 36 hrs compound pretreated human MDA-MB-231 cells measured after 24 hrs by celltiter-glo assay. The class given is functional, cell-based. The note with it: dose 3-1000 nM, time 60.0 hrs.

Data set [19] can be described thus: AUC(0 to t) in Sprague-Dawley rat at 10 mg/kg, iv measured upto 24 hrs by LC-MS/MS analysis. The class given is ADME, organism-based. The note with it: in vivo.

Each structure is given as a SMILES string. Calls of active or inactive are those of the source. No cut-off for these calls is given here.

Consider `COc1cccc2c(N3CCC(O)(CNS(N)(=O)=O)CC3)ncnc12`, for which, in [1], the apical-to-basolateral permeability (Papp A→B) at 10 µM was determined as 0.106 ×10⁻⁶ cm/s. Besides, the half-maximal inhibitory concentration (IC50) in data set [2] was 8.05 nM; in data set [15], > 40000 nM. Besides, the inhibition entry in the data set listed under Homo sapiens was “inactive”. Moreover, the outcome with THP1-Dual KO-STING [3], with CT26 [6], in the data set on CT26 [7], with CT26 [8], in the data set with CT26 [9] and in the data set with CT26 [10] was Active. Moreover, the result in the data set on THP1-Dual KO-STING [11], with CT26 [13], with CT26 [14], with CT26 [17], in the data set with CT26 [18] and in the data set with THP1-Dual was Active. Besides, in data set [4], the clearance was 84.5 mL/min/kg. This molecule returned a Cmax in data set [5] of 3220 ng/mL. The Activity result in the data set on THP-1 is “Dose-dependent-effect”; in [12], “Non-toxic”. In addition, the efflux ratio at 10 µM in data set [16] was 20.1. The area under the curve AUC(0-t) at 24 h in data set [19] came to 2030 ng·h/mL.
